# From US7846474B2, “Use of bisphosphonates for the treatment of osteogenesis imperfecta” (Gador S.A., priority 1999, dated 2010)
# What was measured:
# growth of cartilage = conditions: in vivo; cited from earlier work
# [1] = test system: children with Osteogenesis Imperfecta; test: Continuous disodium pamidronate treatment of children with Osteogenesis Imperfecta (absorptiometry, biochemical markers, quantitative computerized tomography of the tibia); type: in vivo, human
# Method: The doses were adjusted to the patient's condition with a mean of 3.5 mg/Kg of body weight/day by oral administration, or 20 mg per dose, every 3-6 months, by intravenous administration in one of the cases.
# The latter can be attributed to the scarce development of inertia due to the internal osseous lack of resorption in the diaphysis. In FIG. 2 it can be observed that in children with normal development, there exists a range of cortical mineralization which contributes to the diaphysial stability (resistance to deformation). This range is of approximately 1020-1100 mg/cm3.
# The administration period of bisphosphonates was 2-4.5 years, indicating the existence of a wide interindividual variability in order to obtain the “mineralizing” effect and the inconvenience of adopting fixed periods of treatments.
SMILES,effect on the growth of cartilage (growth of cartilage),"cortical mineralization range reached (cortical mineral density of the tibia, vDMO) ([1]; FIG. 2, range of normal children that contributes to diaphysial stability, reached by treated OI children)","osseous metabolic turnover (biochemical markers of osseous resorption and formation) ([1]; OI type III/IV children, continuous scheme 2.5-4 years, mean 3.5 mg/Kg/day oral or 20 mg i.v. every 3-6 months, urinary hydroxyproline/creatinine, serum alkaline phosphatase, osteocalcine)","total apparent mineral density of the lumbar vertebrae and the neck of the femur ([1]; osseous absorptiometries, continuous scheme 2.5-4 years)"
CN(C)CCC(O)(P(=O)(O)O)P(=O)(O)O [olpadronate],not to affect the growth of cartilage,–,–,–
"NCCC(O)(P(=O)(O)O)P(=O)(O)O [pamidronate, disodium pamidronate]",–,1020-1100 mg/cm3,reduction of the osseous metabolic turnover,progressive improvement
